Reference: PubChem BioAssay (NCI)
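Where inhibition never reached the appropriate level, the endpoint shown equals the highest concentration tested. Otherwise, values were interpolated linearly from a five-concentration, 48-hour dose response in 96-well plates. TGI is the concentration that stops growth completely.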

Assays:
Experiment in all cases: inhibition of tumour cell growth, NCI panel, 48 h
SN12C renal = tested on: SN12C renal
SF-295 CNS = tested on: SF-295 CNS
CAKI-1 renal = tested on: CAKI-1 renal
ACHN renal = tested on: ACHN renal
HCC-2998 colon = tested on: HCC-2998 colon
UACC-62 melanoma = tested on: UACC-62 melanoma
SF-539 CNS = tested on: SF-539 CNS
RPMI-8226 leukemia = tested on: RPMI-8226 leukemia
HOP-92 NSCLC = tested on: HOP-92 NSCLC
OVCAR-3 ovarian = tested on: OVCAR-3 ovarian
LOX IMVI melanoma = tested on: LOX IMVI melanoma
COLO 205 colon = tested on: COLO 205 colon
SNB-75 CNS = tested on: SNB-75 CNS
UO-31 renal = tested on: UO-31 renal
A498 renal = tested on: A498 renal
MOLT-4 leukemia = tested on: MOLT-4 leukemia
PC-3 prostate = tested on: PC-3 prostate
OVCAR-4 ovarian = tested on: OVCAR-4 ovarian
MDA-N = tested on: MDA-N
OVCAR-5 ovarian = tested on: OVCAR-5 ovarian
HS 578T breast = tested on: HS 578T breast
MDA-MB-231 breast = tested on: MDA-MB-231 breast
KM12 colon = tested on: KM12 colon
SR leukemia = tested on: SR leukemia
MDA-MB-435 = tested on: MDA-MB-435
SK-OV-3 ovarian = tested on: SK-OV-3 ovarian
U251 CNS = tested on: U251 CNS
SK-MEL-2 melanoma = tested on: SK-MEL-2 melanoma
RXF 393 renal = tested on: RXF 393 renal
SW-620 colon = tested on: SW-620 colon
SF-268 CNS = tested on: SF-268 CNS
HCT-116 colon = tested on: HCT-116 colon
TK-10 renal = tested on: TK-10 renal
T-47D breast = tested on: T-47D breast
UACC-257 melanoma = tested on: UACC-257 melanoma
MCF7 breast = tested on: MCF7 breast
HL-60(TB) leukemia = tested on: HL-60(TB) leukemia
SNB-19 CNS = tested on: SNB-19 CNS
SK-MEL-28 melanoma = tested on: SK-MEL-28 melanoma
K-562 leukemia = tested on: K-562 leukemia
SK-MEL-5 melanoma = tested on: SK-MEL-5 melanoma
786-0 renal = tested on: 786-0 renal
HCT-15 colon = tested on: HCT-15 colon
DU-145 prostate = tested on: DU-145 prostate
NCI-H460 lung = tested on: NCI-H460 lung
M14 melanoma = tested on: M14 melanoma
NCI-H23 lung = tested on: NCI-H23 lung
BT-549 breast = tested on: BT-549 breast
A549 NSCLC = tested on: A549 NSCLC
NCI/ADR-RES ovarian = tested on: NCI/ADR-RES ovarian
HT29 colon = tested on: HT29 colon
CCRF-CEM leukemia = tested on: CCRF-CEM leukemia
EKVX NSCLC = tested on: EKVX NSCLC
NCI-H522 lung = tested on: NCI-H522 lung
NCI-H226 lung = tested on: NCI-H226 lung

Compound `CC(C)(C)n1[nH]c(=O)n(C(C)(C)C)c1=O` has a TGI (SN12C renal) of over 100 µM, a TGI (SF-295 CNS) of over 100 µM and a TGI (CAKI-1 renal) of over 100 µM. For the same compound, the TGI (ACHN renal) was over 100 µM, the TGI (HCC-2998 colon) was over 100 µM and the TGI (UACC-62 melanoma) was over 100 µM. For the same compound, the TGI (SF-539 CNS) was over 100 µM, the TGI (RPMI-8226 leukemia) was over 100 µM and the TGI (HOP-92 NSCLC) was over 100 µM. It also gave a TGI (OVCAR-3 ovarian) of over 100 µM, a TGI (LOX IMVI melanoma) of over 100 µM and a TGI (COLO 205 colon) of over 100 µM. It also gave a TGI (SNB-75 CNS) of over 100 µM, a TGI (UO-31 renal) of over 100 µM and a TGI (A498 renal) of over 100 µM. The TGI (MOLT-4 leukemia) was over 100 µM, the TGI (PC-3 prostate) was over 100 µM and the TGI (OVCAR-4 ovarian) was over 100 µM. The TGI (MDA-N) was over 100 µM, the TGI (OVCAR-5 ovarian) was over 100 µM and the TGI (HS 578T breast) was over 100 µM. It also gave a TGI (MDA-MB-231 breast) of over 100 µM, a TGI (KM12 colon) of over 100 µM and a TGI (SR leukemia) of over 100 µM. For the same compound, the TGI (MDA-MB-435) was over 100 µM, the TGI (SK-OV-3 ovarian) was over 100 µM and the TGI (U251 CNS) was over 100 µM. It also gave a TGI (SK-MEL-2 melanoma) of over 100 µM, a TGI (RXF 393 renal) of over 100 µM and a TGI (SW-620 colon) of over 100 µM. It also gave a TGI (SF-268 CNS) of over 100 µM, a TGI (HCT-116 colon) of over 100 µM and a TGI (TK-10 renal) of over 100 µM. The TGI (T-47D breast) was over 100 µM, the TGI (UACC-257 melanoma) was over 100 µM and the TGI (MCF7 breast) was over 100 µM. For the same compound, the TGI (HL-60(TB) leukemia) was over 100 µM, the TGI (SNB-19 CNS) was over 100 µM and the TGI (SK-MEL-28 melanoma) was over 100 µM. The TGI (K-562 leukemia) was over 100 µM, the TGI (SK-MEL-5 melanoma) was over 100 µM and the TGI (786-0 renal) was over 100 µM. For the same compound, the TGI (HCT-15 colon) was over 100 µM, the TGI (DU-145 prostate) was over 100 µM and the TGI (NCI-H460 lung) was over 100 µM. It also gave a TGI (M14 melanoma) of over 100 µM, a TGI (NCI-H23 lung) of over 100 µM and a TGI (BT-549 breast) of over 100 µM. The TGI (A549 NSCLC) was over 100 µM.

`O=C(CSc1nc2ccc(I)cc2c(=O)n1Cc1ccccc1)NNC(=S)Nc1ccccc1` was tested, and the TGI (NCI/ADR-RES ovarian) was over 100 µM, the TGI (SN12C renal) was over 100 µM and the TGI (SF-295 CNS) was over 100 µM. For the same compound, the TGI (CAKI-1 renal) was over 100 µM, the TGI (HT29 colon) was over 100 µM and the TGI (ACHN renal) was over 100 µM. The TGI (HCC-2998 colon) was over 100 µM, the TGI (UACC-62 melanoma) was over 100 µM and the TGI (RPMI-8226 leukemia) was over 100 µM. The TGI (HOP-92 NSCLC) was over 100 µM, the TGI (OVCAR-3 ovarian) was over 100 µM and the TGI (LOX IMVI melanoma) was over 100 µM. It also gave a TGI (COLO 205 colon) of over 100 µM, a TGI (SNB-75 CNS) of over 100 µM and a TGI (A498 renal) of over 100 µM. For the same compound, the TGI (MOLT-4 leukemia) was over 100 µM, the TGI (PC-3 prostate) was over 100 µM and the TGI (OVCAR-4 ovarian) was over 100 µM. For the same compound, the TGI (MDA-N) was over 100 µM, the TGI (CCRF-CEM leukemia) was over 100 µM and the TGI (OVCAR-5 ovarian) was over 100 µM. The TGI (EKVX NSCLC) was 6.14 µM, the TGI (HS 578T breast) was over 100 µM and the TGI (NCI-H522 lung) was over 100 µM. For the same compound, the TGI (KM12 colon) was over 100 µM, the TGI (SR leukemia) was 23.3 µM and the TGI (MDA-MB-435) was over 100 µM. It also gave a TGI (SK-OV-3 ovarian) of over 100 µM, a TGI (U251 CNS) of over 100 µM and a TGI (SK-MEL-2 melanoma) of over 100 µM. It also gave a TGI (RXF 393 renal) of over 100 µM, a TGI (SW-620 colon) of over 100 µM and a TGI (SF-268 CNS) of over 100 µM. The TGI (HCT-116 colon) was over 100 µM, the TGI (TK-10 renal) was over 100 µM and the TGI (T-47D breast) was over 100 µM. For the same compound, the TGI (UACC-257 melanoma) was 98.7 µM, the TGI (MCF7 breast) was over 100 µM and the TGI (HL-60(TB) leukemia) was over 100 µM. The TGI (SNB-19 CNS) was over 100 µM, the TGI (SK-MEL-28 melanoma) was over 100 µM and the TGI (K-562 leukemia) was over 100 µM. The TGI (SK-MEL-5 melanoma) was over 100 µM, the TGI (786-0 renal) was over 100 µM and the TGI (HCT-15 colon) was over 100 µM. For the same compound, the TGI (NCI-H226 lung) was over 100 µM, the TGI (DU-145 prostate) was over 100 µM and the TGI (NCI-H460 lung) was over 100 µM. For the same compound, the TGI (M14 melanoma) was over 100 µM, the TGI (NCI-H23 lung) was over 100 µM and the TGI (BT-549 breast) was over 100 µM. For the same compound, the TGI (A549 NSCLC) was over 100 µM.
